Test results taken from ChEMBL document CHEMBL3045600, “Synthesis and Fungicidal Activities of Phenoxyphenyl Alkoxyiminoacetamide Derivatives” (J Pestic Sci, 1998).

Legend:
Assay type in all cases: functional
Thanatephorus cucumeris [1] = assay: Fungicidal activity against Thanatephorus cucumeris assessed as rice sheath blight disease control at 31.3 ppm foliar application for 24 hr before inoculation at 26 +- 2 measured after 5 days by preventive manner
Thanatephorus cucumeris [2] = assay: Fungicidal activity against Thanatephorus cucumeris assessed as rice sheath blight disease control at 7.8 ppm foliar application for 24 hr before inoculation at 26 +- 2 measured after 5 days by preventive manner
Thanatephorus cucumeris [3] = assay: Fungicidal activity against Thanatephorus cucumeris assessed as rice sheath blight disease control at 2 ppm foliar application for 24 hr before inoculation at 26 +- 2 measured after 5 days by preventive manner
[4] = system: Pseudoperonospora cubensis; assay: Fungicidal activity against Pseudoperonospora cubensis assessed as cucumber downy mildew disease control at 125 ppm foliar application 24 hr before inoculation on upper surface of leaf by preventive manner
[5] = system: Pseudoperonospora cubensis; assay: Fungicidal activity against Pseudoperonospora cubensis assessed as cucumber downy mildew disease control at 31.3 ppm foliar application 24 hr before inoculation on upper surface of leaf by preventive manner
[6] = system: Pseudoperonospora cubensis; assay: Fungicidal activity against Pseudoperonospora cubensis assessed as cucumber downy mildew disease control at 7.8 ppm foliar application 24 hr before inoculation on upper surface of leaf by preventive manner
[7] = system: Pseudoperonospora cubensis; assay: Fungicidal activity against Pseudoperonospora cubensis assessed as cucumber downy mildew disease control at 2 ppm foliar application 24 hr before inoculation on upper surface of leaf by preventive manner
Botrytis cinerea [8] = assay: Fungicidal activity against Botryotinia fuckeliana assessed as cucumber gray mold disease control at 125 ppm foliar application 24 hr before inoculation at 22 +/- 2 degC measured after 3 days by preventive manner
Botrytis cinerea [9] = assay: Fungicidal activity against Botryotinia fuckeliana assessed as cucumber gray mold disease control at 31.3 ppm foliar application 24 hr before inoculation at 22 +/- 2 degC measured after 3 days by preventive manner
Botrytis cinerea [10] = assay: Fungicidal activity against Botryotinia fuckeliana assessed as cucumber gray mold disease control at 7.8 ppm foliar application 24 hr before inoculation at 22 +/- 2 degC measured after 3 days by preventive manner
Botrytis cinerea [11] = assay: Fungicidal activity against Botryotinia fuckeliana assessed as cucumber gray mold disease control at 2 ppm foliar application 24 hr before inoculation at 22 +/- 2 degC measured after 3 days by preventive manner
Podosphaera fuliginea [12] = assay: Fungicidal activity against Podosphaera fuliginea assessed as cucumber powdery mildew control under greenhouse at 125 ppm foliar application 24 hr before inoculation on upper surface of leaf at 23 +/- 2 degC by preventive manner
Podosphaera fuliginea [13] = assay: Fungicidal activity against Podosphaera fuliginea assessed as cucumber powdery mildew control under greenhouse at 31.3 ppm foliar application 24 hr before inoculation on upper surface of leaf at 23 +/- 2 degC by preventive manner
Podosphaera fuliginea [14] = assay: Fungicidal activity against Podosphaera fuliginea assessed as cucumber powdery mildew control under greenhouse at 7.8 ppm foliar application 24 hr before inoculation on upper surface of leaf at 23 +/- 2 degC by preventive manner
Podosphaera fuliginea [15] = assay: Fungicidal activity against Podosphaera fuliginea assessed as cucumber powdery mildew control under greenhouse at 2 ppm foliar application 24 hr before inoculation on upper surface of leaf at 23 +/- 2 degC by preventive manner
Thanatephorus cucumeris [16] = assay: Fungicidal activity against Thanatephorus cucumeris assessed as rice sheath blight disease control at 125 ppm foliar application for 24 hr before inoculation at 26 +- 2 measured after 5 days by preventive manner
Podosphaera fuliginea [17] = assay: Fungicidal activity against Podosphaera fuliginea assessed as cucumber powdery mildew control under greenhouse at 7.8 ppm foliar application 24 hr after inoculation on upper surface of leaf at 23 +/- 2 degC by curative manner
Podosphaera fuliginea [18] = assay: Fungicidal activity against Podosphaera fuliginea assessed as cucumber powdery mildew control under greenhouse at 2 ppm foliar application 24 hr after inoculation on upper surface of leaf at 23 +/- 2 degC by curative manner
Pyricularia oryzae [19] = assay: Fungicidal activity against Magnaporthe oryzae assessed as rice blast disease control at 10 ppm submerged application measured after 7 days
Pyricularia oryzae [20] = assay: Fungicidal activity against Magnaporthe oryzae assessed as rice blast disease control at 2.5 ppm submerged application measured after 7 days
Pyricularia oryzae [21] = assay: Fungicidal activity against Magnaporthe oryzae assessed as rice blast disease control at 0.63 ppm submerged application measured after 7 days
Pyricularia oryzae [22] = assay: Fungicidal activity against Magnaporthe oryzae assessed as rice blast disease control at 0.16 ppm submerged application measured after 7 days
Botrytis cinerea [23] = assay: Fungicidal activity against Botryotinia fuckeliana assessed as cucumber gray mold disease control at 31.3 ppm foliar application 24 hr after inoculation at 22 +/- 2 degC measured after 3 days by curative manner
Botrytis cinerea [24] = assay: Fungicidal activity against Botryotinia fuckeliana assessed as cucumber gray mold disease control at 7.8 ppm foliar application 24 hr after inoculation at 22 +/- 2 degC measured after 3 days by curative manner
Botrytis cinerea [25] = assay: Fungicidal activity against Botryotinia fuckeliana assessed as cucumber gray mold disease control at 2 ppm foliar application 24 hr after inoculation at 22 +/- 2 degC measured after 3 days by curative manner
Podosphaera fuliginea [26] = assay: Fungicidal activity against Podosphaera fuliginea assessed as cucumber powdery mildew control under greenhouse at 125 ppm foliar application 24 hr after inoculation on upper surface of leaf at 23 +/- 2 degC by curative manner
Podosphaera fuliginea [27] = assay: Fungicidal activity against Podosphaera fuliginea assessed as cucumber powdery mildew control under greenhouse at 31.3 ppm foliar application 24 hr after inoculation on upper surface of leaf at 23 +/- 2 degC by curative manner
[28] = system: Pseudoperonospora cubensis; assay: Fungicidal activity against Pseudoperonospora cubensis assessed as cucumber downy mildew disease control at 125 ppm foliar application 24 hr after inoculation on upper surface of leaf by curative manner
[29] = system: Pseudoperonospora cubensis; assay: Fungicidal activity against Pseudoperonospora cubensis assessed as cucumber downy mildew disease control at 31.3 ppm foliar application 24 hr after inoculation on upper surface of leaf by curative manner
[30] = system: Pseudoperonospora cubensis; assay: Fungicidal activity against Pseudoperonospora cubensis assessed as cucumber downy mildew disease control at 7.8 ppm foliar application 24 hr after inoculation on upper surface of leaf by curative manner
[31] = system: Pseudoperonospora cubensis; assay: Fungicidal activity against Pseudoperonospora cubensis assessed as cucumber downy mildew disease control at 2 ppm foliar application 24 hr after inoculation on upper surface of leaf by curative manner
Botrytis cinerea [32] = assay: Fungicidal activity against Botryotinia fuckeliana assessed as cucumber gray mold disease control at 125 ppm foliar application 24 hr after inoculation at 22 +/- 2 degC measured after 3 days by curative manner

SMILES	Activity (Thanatephorus cucumeris [1])	Activity (Thanatephorus cucumeris [2])	Activity (Thanatephorus cucumeris [3])	Activity [4]	Activity [5]	Activity [6]	Activity [7]	Activity (Podosphaera fuliginea [12])	Activity (Podosphaera fuliginea [13])	Activity (Podosphaera fuliginea [14])	Activity (Podosphaera fuliginea [15])	Activity (Thanatephorus cucumeris [16])	Activity (Podosphaera fuliginea [17])	Activity (Podosphaera fuliginea [18])	Activity (Pyricularia oryzae [19])	Activity (Pyricularia oryzae [20])	Activity (Pyricularia oryzae [21])	Activity (Pyricularia oryzae [22])	Activity (Podosphaera fuliginea [26])	Activity (Podosphaera fuliginea [27])	also measured
CNC(=O)/C(=N/OC)c1cccc([N+](=O)[O-])c1Oc1ccccc1	<70%	<70%	<70%	<70%	<70%	<70%	<70%	<70%	<70%	<70%	<70%	<70%									Activity (Botrytis cinerea [8]): <70%; Activity (Botrytis cinerea [9]): <70%; Activity (Botrytis cinerea [10]): <70%; Activity (Botrytis cinerea [11]): <70%
CNC(=O)/C(=N/OC)c1ccccc1Oc1cccc(C)c1	70%	70%	70%	70%	70%	70%	70%	70%	70%	70%	70%	70%	50%	50%	50%	50%	50%	50%	50%	50%	Activity (Botrytis cinerea [23]): 50%; Activity (Botrytis cinerea [24]): 50%; Activity (Botrytis cinerea [25]): 50%; Activity [28]: 50%; Activity [29]: 50%; Activity [30]: 50%; Activity [31]: 50%; Activity (Botrytis cinerea [32]): 50%
CNC(=O)/C(=N/OC)c1cc(C(F)(F)F)ccc1Oc1ccccc1	<70%	<70%	<70%	<70%	<70%	<70%	<70%	<70%	<70%	<70%	<70%	<70%									Activity (Botrytis cinerea [8]): <70%; Activity (Botrytis cinerea [9]): <70%; Activity (Botrytis cinerea [10]): <70%; Activity (Botrytis cinerea [11]): <70%
CNC(=O)/C(=N/OC)c1ccccc1Oc1cccc(Oc2ccccc2)c1	70%	70%	70%	70%	70%	70%	70%	70%	70%	70%	70%	70%	50%	50%	50%	50%	50%	50%	50%	50%	Activity (Botrytis cinerea [23]): 50%; Activity (Botrytis cinerea [24]): 50%; Activity (Botrytis cinerea [25]): 50%; Activity [28]: 50%; Activity [29]: 50%; Activity [30]: 50%; Activity [31]: 50%; Activity (Botrytis cinerea [32]): 50%
CNC(=O)/C(=N/OC)c1cc([Si](C)(C)C)ccc1Oc1ccccc1	<70%	<70%	<70%	<70%	<70%	<70%	<70%	<70%	<70%	<70%	<70%	<70%									Activity (Botrytis cinerea [8]): <70%; Activity (Botrytis cinerea [9]): <70%; Activity (Botrytis cinerea [10]): <70%; Activity (Botrytis cinerea [11]): <70%
CNC(=O)/C(=N/OC)c1ccccc1Oc1ccc(Cl)cc1	70%	70%	70%	70%	70%	70%	70%	70%	70%	70%	70%	70%	50%	50%	50%	50%	50%	50%	50%	50%	Activity (Botrytis cinerea [23]): 50%; Activity (Botrytis cinerea [24]): 50%; Activity (Botrytis cinerea [25]): 50%; Activity [28]: 50%; Activity [29]: 50%; Activity [30]: 50%; Activity [31]: 50%; Activity (Botrytis cinerea [32]): 50%
CNC(=O)/C(=N/OC)c1ccccc1Oc1ccc(Br)cc1	70%	70%	70%	<70%	<70%	<70%	<70%	70%	70%	70%	70%	70%	50%	50%	50%	50%	50%	50%	50%	50%	Activity (Botrytis cinerea [23]): 50%; Activity (Botrytis cinerea [24]): 50%; Activity (Botrytis cinerea [25]): 50%; Activity [28]: <50%; Activity [29]: <50%; Activity [30]: <50%; Activity [31]: <50%; Activity (Botrytis cinerea [32]): 50%
CNC(=O)/C(=N/OC)c1ccccc1Oc1ccc(OCc2ccccc2)cc1	<70%	<70%	<70%	<70%	<70%	<70%	<70%	<70%	<70%	<70%	<70%	<70%	<50%	<50%	50%	50%	50%	50%	<50%	<50%	Activity (Botrytis cinerea [8]): <70%; Activity (Botrytis cinerea [9]): <70%; Activity (Botrytis cinerea [10]): <70%; Activity (Botrytis cinerea [11]): <70%
CNC(=O)/C(=N/OC)c1ccccc1Oc1ccc(OC)cc1	70%	70%	70%	70%	70%	70%	70%	70%	70%	70%	70%	70%	50%	50%	50%	50%	50%	50%	50%	50%	Activity (Botrytis cinerea [23]): 50%; Activity (Botrytis cinerea [24]): 50%; Activity (Botrytis cinerea [25]): 50%; Activity [28]: 50%; Activity [29]: 50%; Activity [30]: 50%; Activity [31]: 50%; Activity (Botrytis cinerea [32]): 50%
